The source of these data is US12545674B2, “Crystal of trifluoromethyl/chloro disubstituted sulfonamide selective BCL-2 inhibitor” (priority 2020, dated 2026).

Data set [1] in a line: In vitro stability in liver microsomes, mouse. In kind it is in vitro ADME. The note with it: 1 μM. The procedure: (§1) 300 μL of the final incubation system contains 30 μL of liver microsomes (protein concentration: 5 mg/mL), 30 μL of NADPH+MgCl2, 3 μL of the test compound (in acetonitrile), and 237 μL of PBS buffer (pH 7.4). Among them, the proportion of the organic solvent (acetonitrile) was 1% (volume ratio). Samples were prepared in duplicate for each species (mouse, rat and human), with 0.3 mL each. […] 50 μL of the mixture was taken at 0 min, 15 min, 30 min and 60 min, and 300 μL of glacial acetonitrile containing an internal standard was added to terminate the reaction. 50 μL of the incubated sample was added with 300 μL of glacial acetonitrile containing an internal standard (20 ng/mL diazepam) for precipitation. The mixture was vortexed for 5 min, and centrifuged (13,000 rpm, 20° C.) for 10 min 70 μL of supernatant was taken and 70 μL of ultrapure water was added for dilution and homogeneous mixing. 1 μL of sample was injected for analysis.

Data set [2] can be described thus: In vitro stability in liver microsomes, rat. It counts as in vitro ADME. Conditions: 1 μM. How it is done:
as §1

Data set [3] can be described thus: In vitro stability in liver microsomes, human. It counts as in vitro ADME. Conditions: 1 μM. The procedure: as §1
Data set [4] concerns human B-cell leukemia RS4;11 subcutaneous xenograft. Briefly: Pharmacodynamics in human B-cell leukemia RS4;11 subcutaneous xenograft model. In kind it is in vivo, NOD/SCID mice. The note with it: 25 mg/kg p.o. single dose, Day 17 after end of treatment. The source says:
NOD/SCID mice, female, aged 9-10 weeks (ages upon tumor cell grafting), body weight of 16.3-22.0 g. The mice were purchased from Beijing AniKeeper Biotech Co., Ltd. (production license number: SCXK (Jing) 2017-0006; animal certification number: 11402400013155). Breeding environment: SPF grade. Mice were grafted subcutaneously on the right anterior dorsal side with 1×10^7 RS4;11 cells. The day of grafting was defined as day 0. When the mean tumor volume was 240 mm^3, the mice were randomized by the tumor size. The administration was performed as per Table 16 below.
Clinical symptoms observed during the study were recorded in the raw data. Calculation formula for tumor volume: Tumor volume (mm^3)=½×(a×b^2) (where a represents long diameter and b represents short diameter). The data were collected using StudyDirector™ software (version No. 3.1.399.19, supplier: Studylog System, Inc., S.San Francisco, CA, USA) in the study, including measurements of the long and short diameters of the tumor and body weights of the animals. The raw data obtained from a balance and a vernier caliper were directly input into the software, and any change in the data was recorded. Relative tumor proliferation rate (T/C %) refers to the percentage of the relative tumor volume or tumor weight of the treatment and control groups at a certain time point. The calculation formula is as follows: T/C %=TRTV/CRTV×100%(TRTV:mean RTV for treatment group;CRTV:mean RTV for vehicle control group;RTV=Vt/V0, where V0 denotes the tumor volume of the animal upon grouping, and Vt denotes the tumor volume of the animal after treatment).
(T and C are the relative tumor volume (RTV) or tumor weight (TW) at a particular time point for the treatment and control groups, respectively).
All experimental results were expressed as mean tumor volume±SEM (standard error of mean). The relative tumor volume of the treatment group was compared with that of the control group for any significant difference by the independent sample T test. All the data were analyzed using SPSS 18.0. p<0.05 was defined as a significant difference.

The test system of data set [5] is human platelet caspase-3 activity. Briefly: Human platelet toxicity study (caspase-3 activity assay). In kind it is cell-based. The note with it: human platelets, compound concentration 1 μM, 90 min; normalized, reference ABT-199. How it is done: 10 mL of human whole blood was collected using a heparin sodium anticoagulation tube, mixed well by turning upside down, and centrifuged at 90 g for 10 min. The supernatant was collected and centrifuged at 1950 g for 10 min. The supernatant was discarded, and the residue was resuspended in 4 mL of PBS, and centrifuged at 1190 g for 5 min. The procedure was repeated once. The supernatant was discarded, and the platelets were resuspended in PBS and adjusted to a density of 2-3×10^8 cells/mL. Cells were seeded into a 96-well plate at a density of […] and at 100 μL/well. 50 μL of control buffer was added to each negative control well, and 50 μL of compound at a corresponding concentration was added to each compound well to adjust the final concentration of the compound to 2.5 μM or 1 μM, followed by incubation in an incubator at 37° C. for 90 min. The liquids in the 96-well plate were transferred to 1.5 mL centrifuge tubes. […] The resulting mixture was mixed gently, and the plate was read by a PE Envision multi-functional microplate reader (excitation: 360 nm, emission: 460 nm) once every 10 min for 6 times. Caspase-3 activity was determined based on the intensity of the released AMC fluorescence, that is the slope of the fitted line to which each well corresponds represents Caspase activity (all data were normalized and the reference was ABT-199).

Structures are written as SMILES.

For `CC1(C)CCC(CN2CCN(c3ccc(C(=O)NS(=O)(=O)c4ccc(NC[C@H]5COCCO5)c([N+](=O)[O-])c4)c(Oc4cnc5[nH]ccc5c4)c3)CC2)=C(c2ccc(C(F)(F)F)cc2Cl)C1` [Compound of formula I], the “Mouse Residuals at 60 min” value in data set [1] came to 73.9%. In data set [2], the “Rat Residuals at 60 min” value is on record as 90.9%. For the same molecule, the “Human Residuals at 60 min” value in data set [3] is 86.3%. Also, in data set [4], the T/C is on record as 29.8%, the TGI is reported as 70.2% and the “Tumor volume (x ± S)” value is reported as 600.39 ± 32.88 mm^3. For the same molecule, the “Slope (caspase-3 activity)” value in data set [5] is recorded as 0.59.
